Biological target: T1, WT mPIEZO1 (Mus musculus, UniProt E2JF22)
T1 construct: expressed in transfected cells
Experiment: Long substance exposure and hypo-osmolality protocol Ca2+ assay
Assay type: cell-based
Settings: 10 µM
Description: For intracellular Ca^2+ assays, cells were plated at 80–90% confluence in 96-well plates 24 h prior to recordings (6–8 × 10^4 cells per well). […] Cells were washed with SBS and incubated at room temperature for 20 min prior to recordings. Equal volumes of 2x concentrated compounds were injected to test for acute channel activation. Pre-incubation with compounds occurred during the 20 min prior to recordings. To expose cell membranes to hypo-osmolality, an equal volume of hypotonic SBS (containing only 35 mM NaCl) was injected onto the cells. Measurements were made on a fluorescence plate reader (Flexstation III, Molecular Devices) at room temperature (21 ± 2°C). Fura-2 was excited at 340 nm and 380 nm and emitted light collected at 510 nm, with measurements shown as the change in fluorescence (F) ratio (ΔF340/380).
SI Figure S5: Hypo-osm ol al it y test in the Ca2+ assay, referred to in the main paper
(a) Typical 96-well plate mean ± s.e.m. data for changes in intracellular Ca2+ evoked by hypotonic (35 mM NaCl) or normotonic (135 mM NaCl) medium for WT- or Empty vector-transfected cells in increasing concentrations of Yoda1 as indicated and colour -coded on t he right (representative of n = 3-6 independent experiments). […]

T1 sequence (E2JF22 whole entry): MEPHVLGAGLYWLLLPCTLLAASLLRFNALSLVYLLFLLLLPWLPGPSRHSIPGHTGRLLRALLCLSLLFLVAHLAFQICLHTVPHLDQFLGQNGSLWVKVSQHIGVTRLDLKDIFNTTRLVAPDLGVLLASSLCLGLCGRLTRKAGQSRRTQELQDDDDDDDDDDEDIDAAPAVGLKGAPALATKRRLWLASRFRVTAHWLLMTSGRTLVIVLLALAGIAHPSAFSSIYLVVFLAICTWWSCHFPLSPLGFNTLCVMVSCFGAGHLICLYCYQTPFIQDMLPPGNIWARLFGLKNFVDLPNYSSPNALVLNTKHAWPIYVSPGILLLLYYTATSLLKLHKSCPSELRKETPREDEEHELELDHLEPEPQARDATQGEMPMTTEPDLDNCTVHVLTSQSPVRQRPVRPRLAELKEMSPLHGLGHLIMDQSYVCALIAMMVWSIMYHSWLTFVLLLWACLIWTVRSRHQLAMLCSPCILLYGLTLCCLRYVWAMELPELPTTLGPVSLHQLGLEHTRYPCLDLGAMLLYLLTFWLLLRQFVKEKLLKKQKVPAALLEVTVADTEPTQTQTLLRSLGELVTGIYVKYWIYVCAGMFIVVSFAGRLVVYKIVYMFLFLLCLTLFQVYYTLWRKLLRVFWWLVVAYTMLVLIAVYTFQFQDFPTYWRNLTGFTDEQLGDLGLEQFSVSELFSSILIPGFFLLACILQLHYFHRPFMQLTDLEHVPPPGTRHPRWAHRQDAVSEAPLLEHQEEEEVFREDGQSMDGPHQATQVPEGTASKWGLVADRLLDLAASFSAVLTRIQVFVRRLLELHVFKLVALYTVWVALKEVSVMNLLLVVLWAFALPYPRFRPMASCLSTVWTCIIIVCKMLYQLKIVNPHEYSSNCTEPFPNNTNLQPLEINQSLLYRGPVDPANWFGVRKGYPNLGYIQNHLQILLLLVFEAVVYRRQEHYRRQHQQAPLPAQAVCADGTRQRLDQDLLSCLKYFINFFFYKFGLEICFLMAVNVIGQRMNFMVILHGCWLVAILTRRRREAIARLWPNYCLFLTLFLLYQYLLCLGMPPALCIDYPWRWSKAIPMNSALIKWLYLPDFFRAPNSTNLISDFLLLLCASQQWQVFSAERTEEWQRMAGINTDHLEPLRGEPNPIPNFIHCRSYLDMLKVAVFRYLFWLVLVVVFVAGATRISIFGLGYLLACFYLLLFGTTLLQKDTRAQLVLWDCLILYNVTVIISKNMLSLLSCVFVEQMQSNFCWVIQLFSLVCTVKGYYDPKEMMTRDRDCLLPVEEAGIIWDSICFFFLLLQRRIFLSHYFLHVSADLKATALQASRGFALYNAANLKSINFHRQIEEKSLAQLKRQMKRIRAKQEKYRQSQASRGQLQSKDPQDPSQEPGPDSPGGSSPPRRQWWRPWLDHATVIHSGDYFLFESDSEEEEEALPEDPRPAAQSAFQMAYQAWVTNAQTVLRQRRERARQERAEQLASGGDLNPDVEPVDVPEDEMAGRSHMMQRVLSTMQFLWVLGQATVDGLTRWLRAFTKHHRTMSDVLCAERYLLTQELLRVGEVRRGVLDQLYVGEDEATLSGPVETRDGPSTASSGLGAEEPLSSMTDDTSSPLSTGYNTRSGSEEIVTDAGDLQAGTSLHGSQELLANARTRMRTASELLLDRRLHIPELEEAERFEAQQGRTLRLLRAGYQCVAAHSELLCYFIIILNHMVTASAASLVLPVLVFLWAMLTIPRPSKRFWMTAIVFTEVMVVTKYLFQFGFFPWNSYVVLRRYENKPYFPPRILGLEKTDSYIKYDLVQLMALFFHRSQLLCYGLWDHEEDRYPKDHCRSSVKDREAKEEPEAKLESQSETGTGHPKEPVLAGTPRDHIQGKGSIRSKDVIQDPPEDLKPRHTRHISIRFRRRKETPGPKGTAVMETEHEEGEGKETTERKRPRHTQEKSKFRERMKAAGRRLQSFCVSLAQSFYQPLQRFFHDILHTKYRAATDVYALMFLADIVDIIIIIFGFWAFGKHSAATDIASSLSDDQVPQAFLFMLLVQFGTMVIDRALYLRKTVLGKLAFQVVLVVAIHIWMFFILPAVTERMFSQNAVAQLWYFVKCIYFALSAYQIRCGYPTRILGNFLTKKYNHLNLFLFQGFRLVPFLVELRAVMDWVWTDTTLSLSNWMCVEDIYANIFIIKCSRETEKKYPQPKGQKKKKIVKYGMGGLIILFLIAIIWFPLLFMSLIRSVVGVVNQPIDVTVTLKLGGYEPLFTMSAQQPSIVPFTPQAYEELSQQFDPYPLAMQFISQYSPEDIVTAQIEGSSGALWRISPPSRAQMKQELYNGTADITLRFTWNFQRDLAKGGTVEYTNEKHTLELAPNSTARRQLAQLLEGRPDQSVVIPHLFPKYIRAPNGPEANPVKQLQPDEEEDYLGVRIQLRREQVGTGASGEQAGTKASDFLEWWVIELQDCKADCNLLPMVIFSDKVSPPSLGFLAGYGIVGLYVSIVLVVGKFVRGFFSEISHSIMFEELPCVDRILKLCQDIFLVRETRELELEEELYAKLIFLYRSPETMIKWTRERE

SMILES: Nc1ccc(-c2nnc(SCc3c(Cl)cccc3Cl)s2)cc1 [KC146, 4-(5-((2,6-dichlorobenzyl)thio)-1,3,4-thiadiazol-2-yl)aniline]
- assay interference: caused a fluorescence artefact

Reference: publication PMC12337661, “PIEZO1 mechanical insensitivity in generalized lymphatic dysplasia with the potential for pharmacological rescue” (iScience, 2025)
